Experimental data as given in patent US20210300900A1, “OGA INHIBITOR COMPOUNDS” (Janssen Pharmaceutica NV, priority 2018, published 2021).
Structures can show the parent of a compound that is named as a salt.

What was measured:
[1] = target: T1, recombinant human Meningioma Expressed Antigen 5 (MGEA5), also referred to as O-GcNAcase (OGA) (Homo sapiens, UniProt O60502); assay: OGA biochemical assay (inhibition of FM-GlcNAc hydrolysis, fluorescence); conditions: FM-GlcNAc substrate; for Emax: read-out: Enzymatic Emax (%); for IC50: read-out: Enzymatic hOGA, pIC50 (converted)
T1 construct: Full length OGA enzyme was purchased at OnGene (cat #TP322411); purchased OnGene (so in the source)
T1 sequence (O60502 1-916): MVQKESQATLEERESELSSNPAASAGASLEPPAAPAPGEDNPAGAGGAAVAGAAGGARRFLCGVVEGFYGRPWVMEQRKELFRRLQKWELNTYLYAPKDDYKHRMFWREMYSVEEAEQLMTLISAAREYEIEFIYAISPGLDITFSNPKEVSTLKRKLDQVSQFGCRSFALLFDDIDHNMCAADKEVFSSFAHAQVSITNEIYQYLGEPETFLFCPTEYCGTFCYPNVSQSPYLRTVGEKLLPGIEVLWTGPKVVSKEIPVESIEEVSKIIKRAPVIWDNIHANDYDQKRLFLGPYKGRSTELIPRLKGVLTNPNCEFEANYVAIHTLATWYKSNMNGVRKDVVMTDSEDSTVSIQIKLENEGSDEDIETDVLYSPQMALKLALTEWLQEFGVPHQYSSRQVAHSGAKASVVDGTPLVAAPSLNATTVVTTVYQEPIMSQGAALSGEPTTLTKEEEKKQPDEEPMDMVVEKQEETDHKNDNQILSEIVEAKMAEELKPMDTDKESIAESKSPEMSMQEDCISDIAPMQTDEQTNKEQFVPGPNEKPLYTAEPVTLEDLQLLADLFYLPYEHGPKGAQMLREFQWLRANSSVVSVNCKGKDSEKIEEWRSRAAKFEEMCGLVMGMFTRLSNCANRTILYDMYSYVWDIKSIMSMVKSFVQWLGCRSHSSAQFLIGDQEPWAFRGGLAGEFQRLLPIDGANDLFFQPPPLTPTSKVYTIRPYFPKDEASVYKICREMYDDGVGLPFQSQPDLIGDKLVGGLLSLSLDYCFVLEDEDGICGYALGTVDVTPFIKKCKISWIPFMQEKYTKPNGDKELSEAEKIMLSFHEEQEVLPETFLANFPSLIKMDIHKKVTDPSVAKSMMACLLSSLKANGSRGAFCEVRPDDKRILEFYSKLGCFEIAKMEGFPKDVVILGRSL
How it was run: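 Full-length recombinant human OGA (2 nM) pre-incubated 60 min with compound, then FM-GlcNAc (100 uM final) added in 200 mM citrate/phosphate pH 7.2 with 0.005% Tween-20; 6 h at room temperature, stopped with pH 11.0 carbonate. Fluorescein read at ex 485/em 538 nm; IC50 and Hill coefficient from curve fit against no-inhibitor and saturating-standard controls.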

[2] = target: T2, OGA (Homo sapiens, UniProt O60502); assay: OGA cellular assay (ICC detection of O-GlcNAcylated proteins in HEK293 cells inducible for P301L mutant human Tau); format: cell-based; conditions: 6 hours incubation; for Emax: HEK293, HEK293 cells inducible for P301L mutant human Tau, maximum = Thiamet G 200 uM; for EC50: HEK293 cells inducible for P301L mutant human Tau, read-out: Cellular hOGA, pEC50 (converted)
T2 construct: endogenous in cells; host or cells: HEK293 cells inducible for P301L mutant human Tau (isoform 2N4R)
T2 sequence (O60502 1-916): T1 sequence (O60502 1-916)
Description: HEK293 cells inducible for P301L mutant human Tau (isoform 2N4R) were established at Janssen. Thiamet-G was used for both plate validation (high control) and as reference compound (reference EC50 assay validation). OGA inhibition is evaluated through the immunocytochemical (ICC) detection of O-GlcNAcylated proteins by the use of a monoclonal antibody (CTD110.6; Cell Signaling, #9875) detecting O-GlcNAcylated residues as previously described (Dorfmueller et al. 2010 Chemistry & biology, 17:1250). Inhibition of OGA will result in an increase of O-GlcNAcylated protein levels resulting in an increased signal in the experiment. Cell nuclei are stained with Hoechst to give a cell culture quality control and a rough estimate of immediate compounds toxicity, if any. ICC pictures are imaged with a Perkin Elmer Opera Phenix plate microscope and quantified with the provided software Perkin Elmer Harmony 4.1.
Cells were propagated in DMEM high Glucose (Sigma, #D5796) following standard procedures. 2 days before the cell assay cells are split, counted and seeded in Poly-D-Lysine (PDL) coated 96-wells (Greiner, #655946) plate at a cell density of 12,000 cells per cm^2 (4,000 cells per well) in 100 μl of Assay Medium (Low Glucose medium is used to reduce basal levels of GlcNAcylation) (Park et al. 2014 The Journal of biological chemistry 289:13519). At the day of compound test medium from assay plates was removed and replenished with 90 μl of fresh Assay Medium. 10 μl of compounds at a 10 fold final concentration were added to the wells. Plates were centrifuged shortly before incubation in the cell incubator for 6 hours. DMSO concentration was set to 0.2%. Medium is discarded by applying vacuum. For staining of cells medium was removed and cells washed once with 100 μl D-PBS (Sigma, #D8537). From next step onwards unless other stated assay volume was always 50 μl and incubation was performed without agitation and at room temperature. Cells were fixed in 50 μl of a 4% paraformaldehyde (PFA, Alpha aesar, #043368) PBS solution for 15 minutes at room temperature. […] Before analysis samples were washed 2 times manually for 5 minutes in ICC base buffer.
Imaging is performed using Perkin Elmer Phenix Opera using a water 20×objective and recording 9 fields per well. Intensity readout at 488 nm is used as a measure of O-GlcNAcylation level of total proteins in wells. To assess potential toxicity of compounds nuclei were counted using the Hoechst staining. IC50-values are calculated using parametric non-linear regression model fitting. As a maximum inhibition Thiamet G at a 200 uM concentration is present on each plate. In addition, a concentration response of Thiamet G is calculated on each plate.

Row | Compound | melting point [°C] | Emax [1] [%] | IC50 [1] [nM] | Emax [2] [%] | EC50 [2] [nM] | Enzymatic Emax (%) [1] [%]
1 | CC(=O)Nc1cc(CN2CCC[C@H](Cc3cc(C)nc(C)c3)C2)cnn1 (as salt: HCl) [Product 62] | 206.5 | – | – | – | – | –
2 | CC(=O)Nc1cc(CN2CCCC(COc3cc(C)nc(C)c3)C2)n[nH]1 (stereo not drawn) (as salt: hydrochloric acid salt) [Product 119] | 192.2 | – | – | – | – | –
3 | COc1cc(NC[C@H]2CCCN(C(C)c3nc(OC)ccc3F)C2)cc(C)n1 (mixture of isomers) (as salt: HCl) [Product 90] | 151.3 | – | – | – | – | –
4 | COc1ccc(F)c(C(C)N2CCCC(CNc3cc(C)nc(C)c3)C2)n1 (stereo not drawn) (as salt: HCl) [Product 86] | 206.8 | – | – | – | – | –
5 | CC(=O)Nc1cc(C(C)N2CCCC(CNc3cc(C)nc(C(F)(F)F)c3)C2)[nH]n1 (stereo not drawn) [Product 91] | 261.7 | 104 | 129 | – | – | –
6 | CCOc1cc(CN2CCC[C@H](Cc3cc(C)nc(C)c3)C2)n[nH]1 [Product 14] | 112.89 | 81 | 2750 | – | – | –
7 | CC(=O)Nc1cc(C(C)N2CCCC(c3cc(C)nc(C)c3)C2)n[nH]1 (stereo not drawn) [Product 72] | 184.68 | 97 | 457 | 31 | > 1000 | –
8 | COc1ccc(F)c(C(C)N2CCCC(CNc3cc(C)nc(C(F)(F)F)c3)C2)n1 (stereo not drawn) (as salt: HCl) [Product 96] | 211.6 | – | – | – | – | –
9 | CC(=O)Nc1ncc(CN2CCC[C@H](Cc3cc(C)nc(C)c3)C2)nc1C.Cl [Product 158] | 158.1 | 13 | > 10000 | – | – | –
10 | CC(=O)Nc1ccc(CN2CCC[C@H](Cc3cc(C)nc(C)c3)C2)s1 [Product 28] | – | 100 | 19.1 | 75 | 309 | –
11 | CC(=O)Nc1cc(C(C)N2CCCC(Oc3ncc(C)nc3C)C2)n[nH]1 (stereo not drawn) [Product 117] | – | 102 | 64.6 | 30 | > 1000 | –
12 | CCOc1cc(CN2CCC[C@H](Cc3cc(C)nc(C)c3)C2)n(C)n1 [Product 162] | – | – | – | -6 | > 1000 | 36
13 | COc1ccc(F)c(C(C)N2CCCC(CNc3cc(C)nc(C)c3)C2)n1 (stereo not drawn) [Product 86] | – | 102 | 17 | 94 | 56.2 | –
14 | CC(=O)Nc1cc(CN2CCC[C@H](Cc3cc(C)nc(C)c3)C2)n[nH]1 [Product 1] | – | 101 | 21.4 | 56 | 692 | –
15 | CC(=O)Nc1cc(C(C)N2CCCC(CNc3cc(C)nc(C)c3)C2)[nH]n1 (stereo not drawn) (as salt: HCl) [Product 83] | 245 | – | – | – | – | –
16 | CC(=O)Nc1ccnc(CN2CCC[C@H](Cc3cc(C)nc(C)c3)C2)c1 (as salt: HCl) [Product 31] | 133 | – | – | – | – | –

More lines, now with the values ahead:

Row | melting point [°C] | Emax [1] [%] | IC50 [1] [nM] | Emax [2] [%] | EC50 [2] [nM] | Enzymatic Emax (%) [1] [%] | Compound
17 | 138 | – | – | – | – | – | CCOc1cncc(C(C)N2CCC[C@H](Cc3cc(C)nc(C)c3)C2)c1 (mixture of isomers) (as salt: HCl) [Product 44]
18 | 211.6 | 95 | 692 | 26 | > 1000 | – | CC(=O)Nc1cnc(C(C)N2CCC[C@H](Cc3cc(C)nc(C)c3)C2)cn1 (stereo partly drawn) [Product 64]
19 | 147.5 | – | – | – | – | – | CC(=O)Nc1cc(C(C)N2CCC[C@H](Cc3cc(C)nc(C)c3)C2)cnc1C (mixture of isomers) (as salt: HCl) [Product 33]
20 | 138 | – | – | – | – | – | CC(=O)Nc1ccnc(C(C)N2CCC[C@H](Cc3cc(C)nc(C)c3)C2)c1 (stereo partly drawn) (as salt: HCl) [Product 32]
21 | – | 101 | 10.2 | 60 | 490 | – | CCOc1cnc(C(C)N2CCC[C@H](Cc3cc(C)nc(C)c3)C2)o1 (mixture of isomers) [Product 30]
22 | 188.1 | – | – | – | – | – | CCC(=O)Nc1cncc(C(C)N2CCC[C@H](Cc3cc(C)nc(C)c3)C2)c1 (mixture of isomers) (as salt: HCl) [Product 38]
23 | 251.2 | – | – | – | – | – | CNC(=O)c1cncc(C(C)N2CCC[C@H](Cc3cc(C)nc(C)c3)C2)c1 (mixture of isomers) (as salt: HCl) [Product 40]
24 | 186.5 | – | – | – | – | – | CC(=O)Nc1cncc(CN2CCC[C@H](Cc3cc(C)nc(C)c3)C2)c1 (as salt: HCl) [Product 34]
25 | – | 91 | 490 | 4 | > 1000 | – | CC(=O)Nc1cncc(CN2CCC[C@H](Cc3cc(C)nc(C)c3)C2)c1 [Product 34]
26 | 161.4 | – | – | – | – | – | COc1cncc(C(C)N2CCC[C@H](Cc3cc(C)nc(C)c3)C2)c1 (mixture of isomers) (as salt: HCl) [Product 43]
